Assays:
[1] = Operant responses for food; format: in vivo, rat; conditions: at a dose substantially higher than those required to produce hypophagia
Text: Operant responses for food. Rats were trained to lever press for food on a fixed ratio 1 (FR1) schedule of reinforcement, while food-restricted at 20 g of chow per rat per day (Rodriguez de Fonseca, et al., Acta Pharmacol. Sin., 20:1109-1114 (1999)). Once stable responding was achieved, the animals were trained to acquire an FR5, time out 2-min schedule of food reinforcement and kept in limited access to food. When a stable baseline was obtained, the animals were used to test the effects of vehicle or OEA (1, 5 or 20 mg per kg) administered 15 min before lever presentation. Test duration was 60 min.

[2] = target: T1, human PPARδ (Homo sapiens, UniProt Q03181); test: GAL4 chimeric receptor transactivation assay in HeLa cells, PPARδ; format: cell-based; conditions: read-out: EC50 for PPARβ activation
T1 construct: expressed in transfected cells; host or cells: HeLa (clonal reporter line HLR, stably transfected with pFA-PPARδ)
T1 sequence (Q03181 211-439 limits assumed): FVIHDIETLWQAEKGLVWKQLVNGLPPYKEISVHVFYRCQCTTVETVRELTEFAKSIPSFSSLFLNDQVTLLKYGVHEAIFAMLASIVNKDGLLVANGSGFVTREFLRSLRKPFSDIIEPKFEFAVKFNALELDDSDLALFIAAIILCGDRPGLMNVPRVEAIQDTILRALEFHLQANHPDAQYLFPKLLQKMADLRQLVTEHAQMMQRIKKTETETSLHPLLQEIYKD
Procedure: Eighteen hours following transfection, the culture media was replaced with supplemented DMEM containing hygromycin (100 μg-ml^−1, Calbiochem). After 4 weeks in culture, the surviving clones were isolated and analyzed by luciferase assay. […] The cells were cultured in supplemented DMEM containing hygromycin and G418. For transactivation assays, cells were seeded in 6-well plates (50,000 cells per well) and incubated for 7 hours in supplemented DMEM containing hygromycin and G418, plus appropriate concentrations of test compounds. Dual-luciferase reporter assay system (Promega) and an MLX Microtiter® plate luminometer (Dynex) were used to determine luciferase activity in cell lysates.

[3] = Acute food intake in 24-h food-deprived rats, i.p. dosing; format: in vivo, rat
Procedure: Feeding experiments. Acute experiments. Food intake was measured in 24-h food-deprived rats (Navarro, et al., J. Neurochem., 67:1982-1991 (1996)), administering drugs 15 min before food presentation. Subchronic experiments. Ad libitum fed rats received vehicle injections for three days. On day four, the animals were divided in two equal groups and gave them daily injections of vehicle or OEA (5 mg per kg at 1900 h) for 7 consecutive days, while measuring body weight, food intake and water intake.
The effects of systemically administered OEA or an OEA-like compound or OEA-like modulator on food intake in rats can be assessed using a 24 h fast. […] To define the selectivity of this response, various OEA analogs were evaluated for their ability to produce hypophagia.

[4] = test system: PPAR-α-regulated genes; test: Real time quantitative PCR of gene expression in mouse intestine and liver; format: in vivo
Procedure: Tissues were stored in RnaLater™ (Ambion), extracted total RNA with TRIzol™ (Invitrogen) and quantified it with Ribogreen™ (Molecular Probes). cDNA was synthesized by using SuperscriptII RNase H-reverse transcriptase (Invitrogen).
Reverse transcription of total RNA (2 μg) was performed using Oligo(dT)12-18 primer (0.2 μg) for 50 min at 42° C. Real Time Quantitative (RTQ) PCR was conducted using an ABI PRISM 7700 sequence detection system (Applied Biosystems). Primer/probe sets were designed using the Primer Express™ software and gene sequences available from the Genebank™ database. Primers and fluorogenic probes were synthesized by TIB (Adelphia). The primer/probe sequences for the mouse genes were:
RNA levels were normalized by using glyceraldehyde 3-phosphate dehydrogenase (GAPDH) as an internal standard. mRNA levels were measured by generating six-point serial standard curves using mouse total RNA. Estimates of relative mRNA abundance (in arbitrary units) were made by using the CT value (Schmittgen et al., 2000). Relative quantifications of RNAs of interest were made by using the 2^ΔCT formula, in which ΔCT was calculated by subtracting the CT value for GAPDH from the CT value for the gene of interest. This formula was validated for each primer/probe set by using six-point serial standard curves.

[5] = Other behavioral assays (elevated plus maze, open field, hot plate, rectal temperature); format: in vivo, rat
Procedure: Other behavioral assays. The elevated plus maze test was conducted as described (Navarro, et al., Neuroreport, 8:491-496 (1997)) after the administration of vehicle or OEA (20 mg per kg, i.p.). Horizontal activity in an open field (Beltramo et al., J. Neurosci., 20:3401-3407 (2000)) and pain threshold in the hot plate test (55° C.) (Beltramo et al., Science, 277:1094-1097 (1997)) were measured 15 min after injection of vehicle or OEA (20 mg per kg). Rectal temperature was measured using a digital thermometer (Martin-Calderón et al., Eur. J. Pharmacol., 344:77-86. (1998)).

[6] = Plasma hormone levels by radioimmunoassay; format: in vivo, rat; conditions: 20 mg per kg i.p.
Procedure: Blood chemistry. Plasma β-hydroxybutyrate and glycerol were measured using commercial kits (Sigma, St. Louis, Mo.). Plasma prolactin, corticosterone and luteinizing hormone were quantified by radioimmunoassay (Navarro, et al., Neuroreport, 8:491-496 (1997)).

[7] = test system: Cardiomyocyte; test: [14C]oleate oxidation to CO2 in cardiomyocytes; format: cell-based, rat; conditions: 30 min incubation
Text: This example illustrates the effect of OEA on fat metabolism and methods for studying the same. Oleoylethanolamide (OEA) decreases body weight not only by suppressing appetite, but also by possibly enhancing body fat catabolism. The effects of OEA on fatty acid oxidation in major body-fat burning tissues (soleus muscle, liver, cultured cardiac myocytes and astrocytes) was examined. […] In addition, OEA induces a significant mobilization of triacylglycerol stores from primary white adipose tissue cells. Table 4 details the methods and effects of OEA on fatty acid oxidation in these cells. Structure-activity relationship experiments provide evidence that the effect of OEA on skeletal muscle fatty acid oxidation is specific (FIG. 8).

## CCCCCCCC/C=C\CCCCCCCC(=O)NCCO [OEA, Z-2-hydroxyethyl octadec-9-enamide]
[1]
  operant responses for food: reduced
[2]
  EC50: 1100 ± 100 nM
[3]; 24-h food-deprived rats, i.p.
  food intake (hypophagia): dose- and time-dependent suppression of food intake
[3]; acute, 5 or 20 mg per kg
  water intake: did not alter
[3]; i.p., rats
  half-maximally effective dose for hypophagia: 5 mg per kg
[4]; ileum
  expression of PPAR-α-regulated genes: not and fail to induce expression
[4]; jejunum of wild-type mice, OEA or oleic acid 10, Wy-14643 30 mg kg^−1 i.p.
  expression of PPAR-α-regulated genes (PPAR-α, FAT/CD36, FATP1): increased the expression
[4]; jejunum, wild-type or PPAR-α-null mice
  expression of genes not under the control of PPAR-α (I-FABP, PPAR-β/δ, PPAR-γ): not affected
[4]; jejunum, OEA 10, Wy-14643 30 mg kg^−1 i.p.
  gene expression in mice deficient in PPAR-α: did not stimulate gene expression
[4]; liver of wild-type mice
  transcription of PPAR-α-regulated genes: initiated transcription
[5]; acute
  anxiety-like symptoms (elevated plus maze): did not produce
[5]; acute, 5 or 20 mg per kg
  body temperature: did not alter
  pain threshold (hot plate): did not alter
[5]; at a dose substantially higher than those required to produce hypophagia
  motor activity (open field): reduced
[6]
  activity of the hypothalamus-pituitary-adrenal (HPA) axis: did not alter
[7]
  Stimulatory effect of 10 μM OEA on [14C]oleate oxidation to CO2: 37 ± 9 (n = 3) %

Reference: patent US20050101542A1, “Combination therapy for controlling appetites” (Regents of the University of California, priority 2002, published 2005)
